# Laboratory results: patent US7423175B2, “Hydroxy-tetrahydro-naphthalenylurea derivatives” (Bayer Healthcare AG, priority 2003, dated 2008)
# Legend:
# human VR1 = target: T1, human VR1 (Homo sapiens, UniProt Q8NER1); assay: Capsaicin-induced Ca2+ influx in the human VR1-transfected CHO cell line (Assay 1); format: cell-based; conditions: human VR1-CHOluc9aeq cells, stimulation with 10 nM capsaicin; read-out: activity class (IC50)
# T1 construct: expressed in transfected cells; host or cells: CHOluc9aeq (CHO cells with aequorin and CRE-luciferase reporter genes)
# Text: [Measurement of Capsalcin-Induced Ca^2+ Influx in the Human VR1-Transfected CHO Cell Line] (Assay 1)
# (1) Establishment of the Human VR1-CHOluc9aeq Cell Line
# Human vanilloid receptor (hVR1) cDNA was cloned from libraries of axotomized dorsal root ganglia (WO 00/29577). The cloned hVR1 cDNA was constructed with pcDNA3 vector and transfected into a CHOluc9aeq cell line. The cell line contains aequorin and CRE-luciferase reporter genes as read-out signals. The transfectants were cloned by limiting dilution in selection medium (DMEM/F12 medium (Gibco BRL) supplemented with 10% FCS, 1.4 mM Sodium pyruvate, 20 mM HEPES, 0.15% Sodium bicarbonate, 100 U/ml penicillin, 100 μg/ml streptomycin, 2 mM glutamine, non-essential amino acids and 2 mg/ml G418). Ca^2+ influx was examined in the capsaicin-stimulated clones. A high responder clone was selected and used for further experiments in the project. The human VR1-CHOluc9aeq cells were maintained in the selection medium and passaged every 3-4 days at 1-2.5×10^5 cells/flask ([…]).
# (2) Measurement of Ca^2+ Influx Using FDSS-3000
# Human VR1-CHOluc9aeq cells were suspended in a culture medium which is the same as the selection medium except for G418 and seeded at a density of 1,000 cells per well into 384-well plates (black walled clear-base/Nalgei Nunc International). Following the culture for 48 hrs the medium was changed to 2 μM Fluo-3 AM (Molecular Probes) and 0.02% Puronic F-127 in assay buffer (Hank's balanced salt solution (HBSS), 17 mM HEPES (pH7.4), 1 mM Probenecid, 0.1% BSA) and the cells were incubated for 60 min at 25° C. After washing twice with assay buffer the cells were incubated with a test compound or vehicle for 20 min at 25° C. Mobilization of cytoplasmic Ca^2+ was measured by FDSS-3000 (λex=488 nm, λem=546 nm/Hamamatsu Photonics) for 60 sec after the stimulation with 10 nM capsaicin. Integral R was calculated and compared with controls.
# Results in capsaicin-induced Ca^2+ influx assay in the human VR1-transfected CHO cell line (Assay 1) are shown in Examples and tables of the Examples below. For practical reasons, the compounds are grouped in four classes based on activity as follows: IC50=A(< or =)0.1 μM<B(< or =)0.5 μM<C(< or =)1 μM<D
# T1 sequence (Q8NER1 whole entry): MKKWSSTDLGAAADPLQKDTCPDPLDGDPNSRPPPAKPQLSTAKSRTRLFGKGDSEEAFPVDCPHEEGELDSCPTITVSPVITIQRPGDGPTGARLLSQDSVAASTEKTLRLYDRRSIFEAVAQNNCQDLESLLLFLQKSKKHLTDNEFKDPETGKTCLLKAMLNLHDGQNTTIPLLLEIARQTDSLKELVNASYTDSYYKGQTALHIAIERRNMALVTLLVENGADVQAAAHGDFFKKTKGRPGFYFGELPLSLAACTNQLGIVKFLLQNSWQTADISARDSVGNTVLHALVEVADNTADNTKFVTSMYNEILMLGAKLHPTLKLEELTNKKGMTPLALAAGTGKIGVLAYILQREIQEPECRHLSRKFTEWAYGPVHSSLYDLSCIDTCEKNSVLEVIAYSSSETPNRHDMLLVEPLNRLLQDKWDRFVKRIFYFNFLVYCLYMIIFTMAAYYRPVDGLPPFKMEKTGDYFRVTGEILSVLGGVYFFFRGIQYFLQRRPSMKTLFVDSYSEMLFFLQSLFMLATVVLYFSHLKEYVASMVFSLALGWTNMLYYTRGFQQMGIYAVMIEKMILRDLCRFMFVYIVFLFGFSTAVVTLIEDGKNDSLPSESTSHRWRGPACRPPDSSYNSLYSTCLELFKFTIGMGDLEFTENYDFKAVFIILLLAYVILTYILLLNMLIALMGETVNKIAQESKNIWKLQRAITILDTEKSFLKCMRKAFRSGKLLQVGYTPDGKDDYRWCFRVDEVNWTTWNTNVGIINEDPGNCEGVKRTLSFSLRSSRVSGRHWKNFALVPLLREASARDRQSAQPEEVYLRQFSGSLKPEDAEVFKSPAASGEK
SMILES,melting point [°C],IC50 (human VR1) [nM]
"COc1ccccc1OCCNC(=O)Nc1cccc2c1CC(O)CC2 (centres unmarked) [Example 1-6, N-(7-Hydroxy-5,6,7,8-tetrahydronaphthalen-1-yl)-N′-[2-(2-methoxyphenoxy)ethyl]urea]",182 to 184,> 1000
"O=C(NCCOc1ccc(F)cc1)Nc1cccc2c1CC(O)CC2 (centres unmarked) [Example 1-1, N-[2-(4-Fluorophenoxy)ethyl]-N′-(7-hydroxy-5,6,7,8-tetrahydronaphthalen-1-yl)urea]",167 to 169,< 100
"CN(CCCNC(=O)Nc1cccc2c1CC(O)CC2)c1ccccc1 (centres unmarked) [Example 1-13, N-(7-Hydroxy-5,6,7,8-tetrahydronaphthalen-1-yl)-N′-[3-(methyl-phenyl-amino)propyl]urea]",125 to 126,< 100
"O=C(NCCOc1ccccc1N1CCCCC1)Nc1cccc2c1CC(O)CC2 (centres unmarked) [Example 1-5, N-(7-Hydroxy-5,6,7,8-tetrahydronaphthalen-1-yl)-N′-[2-(2-piperidin-1-yl-phenoxy)ethyl]urea]",128 to 136,< 100
"CCN(CCNC(=O)Nc1cccc2c1C[C@H](O)CC2)c1cccc(C)c1 [Example 1-11, N-{2-[Ethyl(m-tolyl)amino]ethyl}-N′-[(7R)-7-hydroxy-5,6,7,8-tetrahydro-1-naphthalenyl]urea]",143 to 144,< 100
"CCN(CCNC(=O)Nc1cccc2c1C[C@@H](O)CC2)c1cccc(C)c1 [Example 1-12, N-{2-[Ethyl(m-tolyl)amino]ethyl}-N′-[(7S)-7-hydroxy-5,6,7,8-tetrahydro-1-naphthalenyl]urea]",136 to 137,< 100
"O=C(NCCOc1cc(C(F)(F)F)cc(C(F)(F)F)c1)Nc1cccc2c1CC(O)CC2 (centres unmarked) [Example 1-4, N-{2-[3,5-Bis(trifluoromethyl)phenoxy]ethyl}-N′-(7-hydroxy-5,6,7,8-tetrahydronaphthalen-1-yl)urea]",144 to 149,< 100
"Cc1cccc(N(C)CCNC(=O)Nc2cccc3c2CC(O)CC3)c1 (centres unmarked) [Example 1-10, N-(7-Hydroxy-5,6,7,8-tetrahydronaphthalen-1-yl)-N′-{2-[methyl(m-tolyl)amino]-ethyl}urea]",160 to 162,< 100

# Next, values leading:
melting point [°C],IC50 (human VR1) [nM],SMILES
112 to 113,< 100,"O=C(NCCOc1ccc(F)cc1)Nc1cccc2c1C[C@@H](O)CC2 [Example 1-8, N-[2-(4-Fluorophenoxy)ethyl]-N′-[(7S)-7-hydroxy-5,6,7,8-tetrahydronaphthalen-1-yl]urea]"
131 to 136,< 100,"O=C(NCCOc1ccccc1F)Nc1cccc2c1CC(O)CC2 (centres unmarked) [Example 1-2, N-[2-(2-Fluorophenoxy)ethyl]-N′-(7-hydroxy-5,6,7,8-tetrahydro-1-naphthalenyl)-urea]"
165 to 166,< 100,"CCOC(=O)c1c(F)cccc1OCCNC(=O)Nc1cccc2c1CC(O)CC2 (centres unmarked) [Example 1-3, Ethyl 2-Fluoro-6-{2-[3-(7-hydroxy-5,6,7,8-tetrahydronaphthalen-1-yl)-ureido]-ethoxy}benzoate]"
149 to 150,< 100,"CCN(CCNC(=O)Nc1cccc2c1CC(O)CC2)c1cccc(C)c1 (centres unmarked) [Example 1-9, N-{2-[Ethyl(m-tolyl)amino]ethyl]-N′-(7-hydroxy-5,6,7,8-tetrahydro-1-naphthalenyl)urea]"
111 to 113,< 100,"O=C(NCCOc1ccc(F)cc1)Nc1cccc2c1C[C@H](O)CC2 [Example 1-7, N-[2-(4-Fluorophenoxy)ethyl]-N′-[(7R)-7-hydroxy-5,6,7,8-tetrahydronaphthalen-1-yl]urea]"
